What was measured:
Type in all cases: functional
RXF 393 = experiment: Growth inhibition of human RXF393 cells assessed as cell growth at 5X10'-7 M after 48 hrs by sulforhodamine B assay; settings: RXF 393, 48 h, read-out: Activity
OVCAR-5 [1] = experiment: Growth inhibition of human OVCAR5 cells assessed as cell growth at 5X10'-8 M after 48 hrs by sulforhodamine B assay; settings: OVCAR-5, 48 h, read-out: Activity
SNB-75 [2] = experiment: Growth inhibition of human SNB75 cells assessed as cell growth at 5X10'-8 M after 48 hrs by sulforhodamine B assay; settings: SNB-75, 48 h, read-out: Activity
786-0 = experiment: Growth inhibition of human 786-0 cells assessed as cell growth at 5X10'-6 M after 48 hrs by sulforhodamine B assay; settings: 786-0, 48 h, read-out: Activity
SK-MEL-2 = experiment: Growth inhibition of human SK-MEL-2 cells assessed as cell growth at 5X10'-6 M after 48 hrs by sulforhodamine B assay; settings: SK-MEL-2, 48 h, read-out: Activity
MDA-MB-435 = experiment: Growth inhibition of human MDA-MB-435 cells assessed as cell growth at 5X10'-7 M after 48 hrs by sulforhodamine B assay; settings: MDA-MB-435, 48 h, read-out: Activity
Malme-3M [3] = experiment: Growth inhibition of human MALME-3M cells assessed as cell growth at 5X10'-9 M after 48 hrs by sulforhodamine B assay; settings: read-out: Activity
UO-31 [4] = experiment: Growth inhibition of human UO31 cells assessed as cell growth at 5X10'-7 M after 48 hrs by sulforhodamine B assay; settings: UO-31, 48 h, read-out: Activity
SK-MEL-28 = experiment: Growth inhibition of human SK-MEL-28 cells assessed as cell growth at 5X10'-7 M after 48 hrs by sulforhodamine B assay; settings: SK-MEL-28, 48 h, read-out: Activity
LOX IMVI = experiment: Growth inhibition of human LOXIMVI cells assessed as cell growth at 5X10'-5 M after 48 hrs by sulforhodamine B assay; settings: read-out: Activity
HL-60(TB) [5] = experiment: Growth inhibition of human HL-60(TB) cells assessed as cell growth at 5X10'-8 M after 48 hrs by sulforhodamine B assay; settings: HL-60, 48 h, read-out: Activity
HT-29 = experiment: Growth inhibition of human HT-29 cells assessed as cell growth at 5X10'-9 M after 48 hrs by sulforhodamine B assay; settings: HT-29, 48 h, read-out: Activity
OVCAR-8 [6] = experiment: Growth inhibition of human OVCAR8 cells assessed as cell growth at 5X10'-8 M after 48 hrs by sulforhodamine B assay; settings: OVCAR-8, 48 h, read-out: Activity
A549 [7] = experiment: Growth inhibition of human A549/ATCC cells assessed as cell growth at 5X10'-5 M after 48 hrs by sulforhodamine B assay; settings: A549, 48 h, read-out: Activity
A549 [8] = experiment: Growth inhibition of human A549/ATCC cells assessed as cell growth at 5X10'-8 M after 48 hrs by sulforhodamine B assay; settings: A549, 48 h, read-out: Activity
UACC-257 = experiment: Growth inhibition of human UACC257 cells assessed as cell growth at 5X10'-6 M after 48 hrs by sulforhodamine B assay; settings: UACC-257, 48 h, read-out: Activity
SNB-75 [9] = experiment: Growth inhibition of human SNB75 cells assessed as cell growth at 5X10'-5 M after 48 hrs by sulforhodamine B assay; settings: SNB-75, 48 h, read-out: Activity
MDA-MB-231 = experiment: Growth inhibition of human MDA-MB-231 cells assessed as cell growth at 5X10'-6 M after 48 hrs by sulforhodamine B assay; settings: MDA-MB-231, 48 h, read-out: Activity
PC-3 = experiment: Growth inhibition of human PC3 cells assessed as cell growth at 5X10'-8 M after 48 hrs by sulforhodamine B assay; settings: PC-3, 48 h, read-out: Activity
HOP-62 = experiment: Growth inhibition of human HOP62 cells assessed as cell growth at 5X10'-8 M after 48 hrs by sulforhodamine B assay; settings: HOP-62, 48 h, read-out: Activity
K562 = experiment: Growth inhibition of human K562 cells assessed as cell growth at 5X10'-7 M after 48 hrs by sulforhodamine B assay; settings: K562, 48 h, read-out: Activity
IGROV-1 = experiment: Growth inhibition of human IGROV1 cells assessed as cell growth at 5X10'-9 M after 48 hrs by sulforhodamine B assay; settings: IGROV-1, 48 h, read-out: Activity
[10] = Growth inhibition of human HCC2998 cells assessed as cell growth at 5X10'-9 M after 48 hrs by sulforhodamine B assay; settings: HCC 2998, 48 h, read-out: Activity
Malme-3M [11] = experiment: Growth inhibition of human MALME-3M cells assessed as cell growth at 5X10'-7 M after 48 hrs by sulforhodamine B assay; settings: read-out: Activity
NCI-H522 = experiment: Growth inhibition of human NCI-H522 cells assessed as cell growth at 5X10'-9 M after 48 hrs by sulforhodamine B assay; settings: NCI-H522, 48 h, read-out: Activity
HL-60(TB) [12] = experiment: Growth inhibition of human HL-60(TB) cells assessed as cell growth at 5X10'-5 M after 48 hrs by sulforhodamine B assay; settings: HL-60, 48 h, read-out: Activity
SN12C = experiment: Growth inhibition of human SN12C cells assessed as cell growth at 5X10'-9 M after 48 hrs by sulforhodamine B assay; settings: read-out: Activity
BT-549 = experiment: Growth inhibition of human BT549 cells assessed as cell growth at 5X10'-8 M after 48 hrs by sulforhodamine B assay; settings: BT-549, 48 h, read-out: Activity
MDA-MB-468 = experiment: Growth inhibition of human MDA-MB-468 cells assessed as cell growth at 5X10'-9 M after 48 hrs by sulforhodamine B assay; settings: MDA-MB-468, 48 h, read-out: Activity
OVCAR-5 [13] = experiment: Growth inhibition of human OVCAR5 cells assessed as cell growth at 5X10'-7 M after 48 hrs by sulforhodamine B assay; settings: OVCAR-5, 48 h, read-out: Activity
HCT-116 = experiment: Growth inhibition of human HCT116 cells assessed as cell growth at 5X10'-6 M after 48 hrs by sulforhodamine B assay; settings: HCT-116, 48 h, read-out: Activity
UO-31 [14] = experiment: Growth inhibition of human UO31 cells assessed as cell growth at 5X10'-5 M after 48 hrs by sulforhodamine B assay; settings: UO-31, 48 h, read-out: Activity
U-251 = experiment: Growth inhibition of human U251 cells assessed as cell growth at 5X10'-7 M after 48 hrs by sulforhodamine B assay; settings: U-251, 48 h, read-out: Activity
HOP-92 = experiment: Growth inhibition of human HOP92 cells assessed as cell growth at 5X10'-7 M after 48 hrs by sulforhodamine B assay; settings: HOP-92, 48 h, read-out: Activity
OVCAR-8 [15] = experiment: Growth inhibition of human OVCAR8 cells assessed as cell growth at 5X10'-5 M after 48 hrs by sulforhodamine B assay; settings: OVCAR-8, 48 h, read-out: Activity
NCI-H322M = experiment: Growth inhibition of human NCI-H322M cells assessed as cell growth at 5X10'-9 M after 48 hrs by sulforhodamine B assay; settings: read-out: Activity

Structure (SMILES): COc1cc(-c2nn(-c3cccc(NC(=O)Nc4ccc(Cl)c(Cl)c4)c3)cc2-c2ccncc2)ccc1Cl
- growth at 0.5 µM (RXF 393): 76%
- growth at 0.05 µM (OVCAR-5 [1]): 90%
- growth at 0.05 µM (SNB-75 [2]): 83%
- growth at 5 µM (786-0): -5%
- growth at 5 µM (SK-MEL-2): -52%
- growth at 0.5 µM (MDA-MB-435): 84%
- growth at 0.005 µM (Malme-3M [3]): 103%
- growth at 0.5 µM (UO-31 [4]): 65%
- growth at 0.5 µM (SK-MEL-28): 91%
- growth at 50 µM (LOX IMVI): -45%
- growth at 0.05 µM (HL-60(TB) [5]): 114%
- growth at 0.005 µM (HT-29): 102%
- growth at 0.05 µM (OVCAR-8 [6]): 96%
- growth at 50 µM (A549 [7]): 3%
- growth at 0.05 µM (A549 [8]): 92%
- growth at 5 µM (UACC-257): -22%
- growth at 50 µM (SNB-75 [9]): -15%
- growth at 5 µM (MDA-MB-231): -47%
- growth at 0.05 µM (PC-3): 95%
- growth at 0.05 µM (HOP-62): 97%
- growth at 0.5 µM (K562): 65%
- growth at 0.005 µM (IGROV-1): 97%
- growth at 0.005 µM [10]: 101%
- growth at 0.5 µM (Malme-3M [11]): 82%
- growth at 0.005 µM (NCI-H522): 101%
- growth at 50 µM (HL-60(TB) [12]): 3%
- growth at 0.005 µM (SN12C): 94%
- growth at 0.05 µM (BT-549): 104%
- growth at 0.005 µM (MDA-MB-468): 94%
- growth at 0.5 µM (OVCAR-5 [13]): 89%
- growth at 5 µM (HCT-116): 6%
- growth at 50 µM (UO-31 [14]): -11%
- growth at 0.5 µM (U-251): 72%
- growth at 0.5 µM (HOP-92): 35%
- growth at 50 µM (OVCAR-8 [15]): -16%
- growth at 0.005 µM (NCI-H322M): 104%

Structure (SMILES): COc1cc(-c2nn(-c3cccc(NC(=O)Nc4cccc(C(F)(F)F)c4)c3)cc2-c2ccncc2)ccc1Cl
- growth at 0.5 µM (RXF 393): 74%
- growth at 0.05 µM (OVCAR-5 [1]): 86%
- growth at 0.05 µM (SNB-75 [2]): 95%
- growth at 5 µM (786-0): -9%
- growth at 5 µM (SK-MEL-2): -67%
- growth at 0.5 µM (MDA-MB-435): 80%
- growth at 0.005 µM (Malme-3M [3]): 86%
- growth at 0.5 µM (UO-31 [4]): 61%
- growth at 0.5 µM (SK-MEL-28): 87%
- growth at 50 µM (LOX IMVI): -86%
- growth at 0.05 µM (HL-60(TB) [5]): 94%
- growth at 0.005 µM (HT-29): 99%
- growth at 0.05 µM (OVCAR-8 [6]): 101%
- growth at 50 µM (A549 [7]): 1%
- growth at 0.05 µM (A549 [8]): 97%
- growth at 5 µM (UACC-257): -42%
- growth at 50 µM (SNB-75 [9]): -30%
- growth at 5 µM (MDA-MB-231): -35%
- growth at 0.05 µM (PC-3): 90%
- growth at 0.05 µM (HOP-62): 95%
- growth at 0.5 µM (K562): 53%
- growth at 0.005 µM (IGROV-1): 100%
- growth at 0.005 µM [10]: 100%
- growth at 0.5 µM (Malme-3M [11]): 94%
- growth at 0.005 µM (NCI-H522): 95%
- growth at 50 µM (HL-60(TB) [12]): 5%
- growth at 0.005 µM (SN12C): 97%
- growth at 0.05 µM (BT-549): 96%
- growth at 0.005 µM (MDA-MB-468): 93%
- growth at 0.5 µM (OVCAR-5 [13]): 80%
- growth at 5 µM (HCT-116): 3%
- growth at 50 µM (UO-31 [14]): -35%
- growth at 0.5 µM (U-251): 67%
- growth at 0.5 µM (HOP-92): 55%
- growth at 50 µM (OVCAR-8 [15]): -24%
- growth at 0.005 µM (NCI-H322M): 89%

Structure (SMILES): COc1cc(-c2nn(-c3cccc(NC(=O)Nc4cc(C(F)(F)F)cc(C(F)(F)F)c4)c3)cc2-c2ccncc2)ccc1Cl
- growth at 0.5 µM (RXF 393): 82%
- growth at 0.05 µM (OVCAR-5 [1]): 87%
- growth at 0.05 µM (SNB-75 [2]): 90%
- growth at 5 µM (786-0): -60%
- growth at 5 µM (SK-MEL-2): -73%
- growth at 0.5 µM (MDA-MB-435): 85%
- growth at 0.005 µM (Malme-3M [3]): 90%
- growth at 0.5 µM (UO-31 [4]): 62%
- growth at 0.5 µM (SK-MEL-28): 89%
- growth at 50 µM (LOX IMVI): -86%
- growth at 0.05 µM (HL-60(TB) [5]): 98%
- growth at 0.005 µM (HT-29): 110%
- growth at 0.05 µM (OVCAR-8 [6]): 97%
- growth at 50 µM (A549 [7]): -65%
- growth at 0.05 µM (A549 [8]): 95%
- growth at 5 µM (UACC-257): -40%
- growth at 50 µM (SNB-75 [9]): -62%
- growth at 5 µM (MDA-MB-231): -84%
- growth at 0.05 µM (PC-3): 90%
- growth at 0.05 µM (HOP-62): 95%
- growth at 0.5 µM (K562): 42%
- growth at 0.005 µM (IGROV-1): 109%
- growth at 0.005 µM [10]: 102%
- growth at 0.5 µM (Malme-3M [11]): 83%
- growth at 0.005 µM (NCI-H522): 102%
- growth at 50 µM (HL-60(TB) [12]): 6%
- growth at 0.005 µM (SN12C): 96%
- growth at 0.05 µM (BT-549): 102%
- growth at 0.005 µM (MDA-MB-468): 90%
- growth at 0.5 µM (OVCAR-5 [13]): 82%
- growth at 5 µM (HCT-116): -52%
- growth at 50 µM (UO-31 [14]): -93%
- growth at 0.5 µM (U-251): 60%
- growth at 0.5 µM (HOP-92): 30%
- growth at 50 µM (OVCAR-8 [15]): -11%
- growth at 0.005 µM (NCI-H322M): 97%

Reference: ChEMBL document CHEMBL2440076, “New triarylpyrazoles as broad-spectrum anticancer agents: design, synthesis, and biological evaluation” (Eur J Med Chem, 2013)
